Values after ≈ are worked out from the molar mass of the structure shown.
What was measured:
[1] = Solubility of CY1-4 (excess sample shaken in a 37 °C water bath for 48 h, HPLC); assay type: physicochemical; conditions: thermodynamic from solid
Protocol: The excess MSNM@CY1-4 was placed in deionized water and was shaken in a 37 °C water bath for 48 h. The supernatant was filtered after centrifugation at 10,000 rpm, and the filtrate was collected. The CY1-4 was measured using HPLC to calculate the solubility of CY1-4.

[2] = In vitro dissolution of CY1-4 in artificial gastric fluid (pH 1.2) and artificial intestinal fluid (pH 6.8); assay type: physicochemical
Protocol: MSNM@CY1-4 (equivalent to 3 mg of CY1-4) was dispersed in 600 mL artificial gastric fluid (pH 1.2 containing 0.1% (v/v) Tween-80) or 600 mL artificial intestinal fluid (pH 6.8 containing 0.1% (v/v) Tween-80) at 37 °C and 100 rpm. Samples were taken at 0, 2, 5, 12, 20, 40, and 60 min. Each sample was filtered through a 0.22 μm filter membrane and determined by HPLC.

[3] = system: unresectable metastatic melanoma; conditions: combined with Keytruda vs Keytruda alone; phase III, 2018; cited from earlier work
[4] = design: method as in PMID 28053021; conditions: cited from earlier work
[5] = system: recurrent malignant glioma; design: method as in PMID 32436060; conditions: up to 500 mg BID; patients with recurrent malignant glioma; cited from earlier work

In the case of `O=C1c2cc([N+](=O)[O-])ccc2-n2c1nc1ncccc1c2=O` [CY1-4, 9-nitropyridine [2′,3′:4,5] pyrimido [1,2-α] indole-5,11-dione], the solubility at 48 h ([1]; deionized water, water) is reported as < 100 µg/mL, the solubility at 48 h ([1]; deionized water, water, 48 h) is reported as 1.16 ± 0.08 µg/mL (≈ 3.94 µM) and the solubility at 48 h ([1]; pH 1.2 medium, pH 1.2, simulated gastric fluid, pH = 1.2) is reported as 1.36 ± 0.04 µg/mL (≈ 4.62 µM). For the same molecule, the solubility at 48 h ([1]; pH 6.8 medium, pH 6.8, aqueous buffer, pH = 6.8) was 1.19 ± 0.09 µg/mL (≈ 4.04 µM), the CY1-4 dissolved ([2]; artificial gastric fluid pH 1.2, 5 min) was “about 6%” and the “CY1-4 dissolved after the 5 min maximum (decreased to)” value ([2]; artificial gastric fluid pH 1.2, after 5 min) was “about 1%”. For the same molecule, the CY1-4 dissolved ([2]; artificial intestinal fluid pH 6.8, 5 min) was “about 4%” and the “CY1-4 dissolved after the 5 min maximum (decreased to)” value ([2]; artificial intestinal fluid pH 6.8, after 5 min) was “about 1%”.

For `NS(=O)(=O)NCCNc1nonc1C(=NO)Nc1ccc(F)c(Br)c1` [Epacadostat], the Progression-free survival [3] is listed as “failed to significantly improve the progression-free survival”, the Tolerability [4] is listed as “well tolerated” and the “Inhibition of IDO1 activity” value ([4]; dose of ≥100 mg BID) is listed as “could effectively inhibit the activity of IDO1”.

For `O=C1CC(c2c[nH]c3ccc(F)cc23)C(=O)N1` (stereo not drawn) [PF-06840003], the Tolerability [5] is given as “generally well tolerated”.

— paper PMC11676189, “Improving the Anti-Tumor Effect of Indoleamine 2,3-Dioxygenase Inhibitor CY1-4 by CY1-4 Nano-Skeleton Drug Delivery System” (Journal of Functional Biomaterials, 2024)
